The values below come from ChEMBL document CHEMBL4339186, “Repurposing nitrocatechols: 5-Nitro-α-cyanocarboxamide derivatives of caffeic acid and caffeic acid phenethyl ester effectively inhibit aggregation of tau-derived hexapeptide AcPHF6” (Eur J Med Chem, 2019).

SMILES strings stand for the structures. The source made the active and inactive calls. No cut-off for these calls is given here.

The nature of test [1]: Inhibition of synthetic AcPHF6 peptide aggregation in pH 7.4 phosphate buffer assessed as reduction in fluorescence intensity at 50 uM and measured every minute over 2 hrs with 5 secs shaking prior to each reading by ThT fluorescence assay.
The nature of test [2]: Metal chelating activity assessed as Fe2+-compound complex formation at 40 uM after 30 mins by UV-Visible spectrophotometric method.
A short description of test [3]: Metal chelating activity assessed as Cu2+-compound complex formation at 40 uM after 30 mins by UV-Visible spectrophotometric method.
Test [4] is described as follows: Metal chelating activity assessed as Cu2+-compound complex formation at 40 uM incubated with 0-100 uM copper(II) sulfate after 30 mins by UV-Visible spectrophotometric method.

A word on the inhibition: it is how much of the control response was suppressed. Take `CCN(CC)C(=O)/C(C#N)=C/c1cc(O)c(O)c([N+](=O)[O-])c1`: the inhibition in test [1] was found to be 60.3%.

As for `O=C(O)/C=C/c1cc(O)c(O)c(Br)c1`, in test [1], the inhibition stood at 18%.

Turning to `O=C(/C=C/c1cc(O)c(O)c([N+](=O)[O-])c1)OCCc1ccccc1`, the result in test [2] was inactive. Further, the inhibition in test [1] was 55.2%. Moreover, the outcome in test [3] was Active.

For the compound `O=S(=O)(O)c1cc(S(=O)(=O)O)c2c(/N=N/c3ccccc3)c(O)ccc2c1`, in test [1], the inhibition was found to be 54%.

As for `N#C/C(=C\c1cc(O)c(O)c([N+](=O)[O-])c1)C(=O)OCc1ccccc1`, in test [2], the result was inactive. Also, the inhibition in test [1] was 71.2%. The result in test [3] was Active.

Regarding `CCOC(=O)C(=Cc1ccc(O)c(O)c1)C(=O)OCC`, the inhibition entry in test [1] is “inactive”.

For `N#C/C(=C\c1cc(O)c(O)c([N+](=O)[O-])c1)C(=O)NCCc1ccccc1`, the outcome in test [2] was inactive. For the same compound, the outcome in test [4] and in test [3] was Active. For the same compound, in test [1], the inhibition came out at 89.2%.

Take `N#C/C(=C\c1cc(O)c(O)c([N+](=O)[O-])c1)C(=O)NCc1ccccc1`: the result in test [2] was inactive. Also, the inhibition in test [1] worked out at 90.5%. Also, in test [3], the outcome was Active.

As for `CCOC(=O)C(=Cc1cc(O)c(O)c([N+](=O)[O-])c1)C(=O)OCC`, the inhibition in test [1] came to 41%.

On to `O=C(/C=C/c1ccc(O)c(O)c1)OCCc1ccccc1`, for which, in test [1], the inhibition came to 17%.

As to `O=C(O)c1cc(O)c(O)c(O)c1`, the inhibition result in test [1] was “inactive”.

For the compound `CCOC(=O)/C=C/c1cc(O)c(O)c(O)c1`, in test [1], the inhibition was 21%.

For `O=C(/C=C/c1ccc(O)c(O)c1)NCCc1ccccc1`, the inhibition result in test [1] was “inactive”.

With `CCOC(=O)/C=C/c1cc(O)c(O)c([N+](=O)[O-])c1`, in test [1], the inhibition was 44%.

`O=C(O)/C=C/c1ccc(O)c(O)c1`: the inhibition entry in test [1] was “inactive”.

As to `O=C(O)c1ccc(O)c(O)c1`, in test [1], the inhibition entry is “inactive”.

As to `CCOC(=O)C(=Cc1cc(O)c(O)c(O)c1)C(=O)OCC`, the inhibition result in test [1] was “inactive”.

In the case of `CCOC(=O)C(=Cc1ccc(O)cc1)C(=O)OCC`, the inhibition entry in test [1] is “inactive”.

As to `N#C/C(=C\c1cc(O)c(O)c([N+](=O)[O-])c1)C(=O)OCCc1ccccc1`, the outcome in test [2] was inactive. For the same compound, the inhibition in test [1] came to 74.4%. Moreover, in test [3], the outcome was Active.

For `CCOC(=O)/C=C/c1ccc(O)cc1`, the inhibition result in test [1] was “inactive”.

Take `CCOC(=O)/C=C/c1ccc(O)c(O)c1`: the inhibition result in test [1] was “inactive”.

For `O=C(O)/C=C/c1ccc(O)cc1`, the inhibition entry in test [1] is “inactive”.

For the compound `O=C(O)/C=C/c1cc(O)c(O)c([N+](=O)[O-])c1`, in test [1], the inhibition was 45%.

`O=C(/C=C/c1ccc(O)c(O)c1)OCc1ccccc1`: the inhibition in test [1] is 13%.

With `O=C(O)C(=Cc1cc(O)c(O)c([N+](=O)[O-])c1)C(=O)O`, the inhibition entry in test [1] is “inactive”.

With `O=C(/C=C/c1cc(O)c(O)c([N+](=O)[O-])c1)OCc1ccccc1`, in test [2], the result was inactive. For the same compound, the inhibition in test [1] was found to be 44.5%. The result in test [3] was Active.

With `O=C(O)/C=C/c1cc(O)c(O)c(O)c1`, the inhibition result in test [1] was “inactive”.

Take `Cc1ccc(C(=O)c2cc(O)c(O)c([N+](=O)[O-])c2)cc1`: the inhibition in test [1] was found to be 64.6%.
